The values that follow come from patent US20250034216A1, “STEREOSELECTIVE COVALENT LIGANDS FOR ONCOGENIC AND IMMUNOLOGICAL PROTEINS” (The Scripps Research Institute, priority 2021, published 2025).

Experiment [1] has as its target T1, SLC25A20_C283 (Homo sapiens, UniProt O43772).
T1 construct: endogenous in cells; host or cells: 22Rv1
T1 sequence (O43772 1-301): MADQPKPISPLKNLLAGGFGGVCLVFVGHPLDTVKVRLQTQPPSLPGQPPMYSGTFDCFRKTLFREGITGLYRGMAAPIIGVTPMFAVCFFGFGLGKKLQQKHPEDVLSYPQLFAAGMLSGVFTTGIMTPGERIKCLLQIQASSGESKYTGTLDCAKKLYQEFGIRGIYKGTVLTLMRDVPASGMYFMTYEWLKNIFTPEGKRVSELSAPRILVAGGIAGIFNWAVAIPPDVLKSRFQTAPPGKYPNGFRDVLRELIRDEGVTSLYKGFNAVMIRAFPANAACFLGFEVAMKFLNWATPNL
As to the kind of experiment: IA-DTB cysteine engagement. The following applies: 22Rv1 cells, relative to DMSO; for % engagement SLC25A20_283: 5 μM probe, 1 h (FIG. 5B); for % engagement SLC25A20_C283: 20 μM probe, 1 h. It counts as binding. Summed up:
(§1)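 Read-out is TMT-based cysteine engagement, expressed as each reporter ion intensity divided by the average of the DMSO channels. Before that, probe-treated cell lysates were capped with IA-DTB, digested, enriched on streptavidin and TMT-tagged. PSMs with DMSO summed intensity <10,000 or DMSO CV >0.5 were excluded.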

Experiment [2] deals with T2, HNRNPLL_C235 (Homo sapiens, UniProt Q8WVV9).
T2 construct: endogenous in cells; host or cells: 22Rv1
T2 sequence (Q8WVV9 1-542): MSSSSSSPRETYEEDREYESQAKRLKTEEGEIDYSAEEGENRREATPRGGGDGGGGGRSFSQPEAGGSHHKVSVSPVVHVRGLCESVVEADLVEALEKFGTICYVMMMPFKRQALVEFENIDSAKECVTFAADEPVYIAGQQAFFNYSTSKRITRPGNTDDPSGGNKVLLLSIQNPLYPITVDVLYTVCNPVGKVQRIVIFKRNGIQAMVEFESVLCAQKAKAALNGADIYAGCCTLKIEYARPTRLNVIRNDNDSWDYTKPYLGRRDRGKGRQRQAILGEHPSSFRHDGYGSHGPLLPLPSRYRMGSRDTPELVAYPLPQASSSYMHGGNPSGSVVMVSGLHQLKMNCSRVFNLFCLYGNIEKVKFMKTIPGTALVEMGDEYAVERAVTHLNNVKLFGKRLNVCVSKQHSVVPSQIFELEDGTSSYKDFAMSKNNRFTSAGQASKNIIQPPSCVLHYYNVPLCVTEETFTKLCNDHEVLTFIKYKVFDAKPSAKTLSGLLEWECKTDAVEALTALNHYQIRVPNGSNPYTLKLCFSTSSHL
As to the kind of experiment: IA-DTB cysteine engagement. It counts as binding. The following applies: 22Rv1 cells, 20 μM probe, 1 h, relative to DMSO. Summed up: as §1

As to `CC#CC(=O)N1C[C@H](c2ccc(Br)cc2)[C@@H]1C(=O)Nc1cccc2cccnc12` [MY-45B, (2R,3S)-3-(4-bromophenyl)-1-(but-2-ynoyl)-N-(quinolin-8-yl)azetidine-2-carboxamide], the “% engagement SLC25A20_283” value in experiment [1] is 20.50%.

For the compound `C=CC(=O)N1C[C@H](c2ccc(Br)cc2)[C@H]1C(=O)Nc1cccc2cccnc12` [MY-3A, (2S,3S)-1-acryloyl-3-(4-bromophenyl)-N-(quinolin-8-yl)azetidine-2-carboxamide], the “% engagement HNRNPLL_C235” value in experiment [2] is −7.5%. Moreover, the “% engagement SLC25A20_C283” value in experiment [1] stood at 66%.

For `C=CC(=O)N1C[C@@H](c2ccc(Br)cc2)[C@H]1C(=O)Nc1cccc2cccnc12` [MY-1A, (2S,3R)-1-acryloyl-3-(4-bromophenyl)-N-(quinolin-8-yl)azetidine-2-carboxamide], in experiment [2], the “% engagement HNRNPLL_C235” value came out at 15%. Moreover, the “% engagement SLC25A20_C283” value in experiment [1] amounted to 37%.

As to `C=CC(=O)N1C[C@H](c2ccc(Br)cc2)[C@@H]1C(=O)Nc1cccc2cccnc12` [MY-1B, (2R,3S)-1-acryloyl-3-(4-bromophenyl)-N-(quinolin-8-yl)azetidine-2-carboxamide], the “% engagement HNRNPLL_C235” value in experiment [2] is on record as 34%. In addition, in experiment [1], the “% engagement SLC25A20_283” value is 82.75% and the “% engagement SLC25A20_C283” value amounted to 92%.

For the compound `C=CC(=O)N1C[C@H](c2ccc(Br)cc2)[C@H]1C(=O)Nc1cccc2cccnc12` [MY-3B, (2S,3S)-1-acryloyl-3-(4-bromophenyl)-N-(quinolin-8-yl)azetidine-2-carboxamide], in experiment [2], the “% engagement HNRNPLL_C235” value was found to be 75%. Further, the “% engagement SLC25A20_C283” value in experiment [1] is listed as −241%.
